# Source: patent US8859565B2, “Compound for inhibiting type 5 phosphodiesterase and preparation method thereof” (priority 2010, dated 2014)
# Counter-ions that a name gives are not always drawn.
# Legend:
# [1] = tested on: rats having hypertension induced by monocrotaline; conditions: cited from earlier work
# PDE5 [2] = molecular target: T1, PDE5 (Homo sapiens, UniProt O76074); test: Effect to PDE5 on cAMP (cAMP enzyme immunoassay, EIA); format: biochemical; conditions: 1600 fmol cAMP, PDE5 3u, 30° C., 20 min; 10^−4 to 10^−12 mol·L^−1; p>0.05, S curve cannot be fitted
# PDE5 [3] = molecular target: T1, PDE5; test: Inhibiting effect to PDE5 degrading cGMP (cGMP enzyme immunoassay, EIA); format: biochemical; conditions: 3200 fmol cGMP, PDE5 3u, 30° C., 20 min; PROBIT regression
# pulmonary hypertension = conditions: animal model experiments; cited from earlier work
structure (smiles),measurement,setting,value
COc1ccc(CNc2nnc(N3CCC(O)CC3)c3ccc(C#N)cc23)cc1Cl.Cl [E-4010],Survival rate,[1],can increase the survival rate
"CCCc1nn(C)c2c(=O)[nH]c(-c3cc(S(=O)(=O)N4C[C@@H](C)N(C)[C@@H](C)C4)ccc3OCC)nc12 [ZTH, 5-[2-ethoxyphenyl-5-(3,4,5-trimethylpiperazinyl)-sulfonyl]-1-methyl-3-propyl-1,6-dihydro-7H-pyrazolo[4,3-d]pyrimidine-7-ketone citrate]",Effect to PDE5 on cAMP (OD value vs negative control),PDE5 [2],no substantial difference in OD value
same,IC50,PDE5 [3],2.12 nM
CCCOc1ccccc1-c1nc2nn[nH]c2c(=O)[nH]1 [zaprinast],Effect on pulmonary hypertension,pulmonary hypertension,relatively strong effects to lower pulmonary hypertension
